≈ marks a conversion by molar mass, not a printed value. Where two headings read alike, the source gives them in different places.
Columns and labels:
Format in all cases: cell-based
[1] = test system: Staphylococcus aureus (H-Heatley) NRRL B-314; experiment: in vitro turbidometric assay (Autoturb Microbiological Assay System) against Staphylococcus aureus; conditions: nutrient broth pH 7, approximately 4 hours at 37° C., A-40104 factor A as standard
Method: The compounds are conveniently tested against a typical gram-positive organism, Staphylococcus aureus, using a turbidometric assay on a semi-automated system (Autoturb Microbiological Assay System, Elanco) described by N. R. Kuzel and F. W. Kavanagh in J. Pharmaceut. Sci, 60 (5), 764 and 767 (1971). In testing these compounds, the following parameters were used: Staphylococcus aureus (H-Heatley) NRRL B-314 in a nutrient broth medium (pH 7), incubated for approximately 4 hours at 37° C. Test samples and A-40104 factor A, which is used as a standard, were dissolved in water. The standard was presented to the Autoturb carrousel at concentrations of 1.25, 2.50, 3.75, 5.00 and 6.25 mcg/ml. Test compounds were diluted to contain approximately 2.5 to 5.0 mcg of activity per ml, as presented to the carrousel. The units of activity of some of the typical compounds of this invention (R^2 =H in group tested) in this in vitro assay are summarized in Table I

Actinomyces israelii = experiment: standard agar-dilution test, anaerobic bacteria; conditions: 24-hour incubation
Clostridium perfringens = experiment: microbe, parasite or virus in culture; conditions: 24 h
[2] = test system: Bacteroides thetaiotaomicron; experiment: standard agar-dilution test, anaerobic bacteria; conditions: 24-hour incubation
Method: (§1) Table IV summarizes the activity of typical compounds of this invention, as determined by the standard agar-dilution test.
(§2) *Endpoint read after 24-hour incubation

Clostridium septicum = experiment: standard agar-dilution test, anaerobic bacteria; conditions: 24-hour incubation
Method: as §1, §2

Eubacterium aerofaciens = experiment: standard agar-dilution test, anaerobic bacteria; conditions: Collinsella aerofaciens
[3] = test system: Peptococcus asaccharolyticus; experiment: standard agar-dilution test, anaerobic bacteria; conditions: Peptoniphilus asaccharolyticus, 24-hour incubation
Peptococcus prevoti = experiment: standard agar-dilution test, anaerobic bacteria
[4] = test system: Peptostreptococcus anaerobius; experiment: standard agar-dilution test, anaerobic bacteria; conditions: 24-hour incubation
[5] = test system: Peptostreptococcus intermedius; experiment: standard agar-dilution test, anaerobic bacteria
Bacteroides fragilis 111 = experiment: standard agar-dilution test, anaerobic bacteria
[6] = test system: Bacteroides fragilis 1877; experiment: standard agar-dilution test, anaerobic bacteria
[7] = test system: Bacteroides fragilis 1936B; experiment: standard agar-dilution test, anaerobic bacteria
[8] = test system: Bacteroides melaninogenicus 1856/28; experiment: standard agar-dilution test, anaerobic bacteria; conditions: Prevotella intermedia
[9] = test system: Bacteroides melaninogenicus 2736; experiment: standard agar-dilution test, anaerobic bacteria
Bacteroides vulgatis = experiment: standard agar-dilution test, anaerobic bacteria
Bacteroides corrodens = experiment: standard agar-dilution test, anaerobic bacteria; conditions: Eikenella corrodens
Fusobacterium symbiosum = experiment: standard agar-dilution test, anaerobic bacteria
[10] = test system: Fusobacterium necrophorum; experiment: standard agar-dilution test, anaerobic bacteria
Spiroplasma citri = experiment: in vitro inhibition of Spiroplasma citri measured by a color reaction; set-up: key to Activity (color reaction): Red (R) includes complete inhibition; red-orange (RO) indicates partial inhibition; yellow (Y) indicates no inhibition
Method: In another important aspect, the compounds of this invention are active against Spiroplasmas. Spiroplasma citri is the causative agent of citrus-stubborn disease; another Spiroplasma, corn-stunt Spiroplasma, affects the growth of corn. Table VII summarizes the in vitro activity of representative compounds of the present invention (R^2 =H in this group) against Spiroplasma citri. In this test, inhibition of S. citri is measured by a color reaction. Red (R) includes complete inhibition; red-orange (RO) indicates partial inhibition; and yellow (Y) indicates no inhibition.

Mycoplasma gallisepticum = experiment: in vitro broth-dilution studies, mycoplasma; conditions: Mycoplasmoides gallisepticum
Description: (§3) The minimal inhibitory concentrations (MIC's) of a number of typical compounds of the present invention (R^2 =H in group tested) against various mycoplasma species, as determined by in vitro broth-dilution studies, are summarized in Table V.

Mycoplasma hyorhinis = experiment: in vitro broth-dilution studies, mycoplasma
Description: as §3

Mycoplasma synoviae = experiment: in vitro broth-dilution studies, mycoplasma; conditions: Mycoplasmopsis synoviae
Description: as §3

Mycoplasma hyopneumoniae = experiment: in vitro broth-dilution studies, mycoplasma; conditions: Mesomycoplasma hyopneumoniae
Description: as §3

[11] = Eubacterium aerofaciens, 24-hour incubation, read-out: MIC
[12] = Peptococcus prevoti, 24-hour incubation, read-out: MIC
[13] = Peptostreptococcus intermedius, 24-hour incubation, read-out: MIC
[14] = Bacteroides fragilis 111, 24-hour incubation, read-out: MIC
[15] = Bacteroides fragilis 1877, 24-hour incubation, read-out: MIC
[16] = Bacteroides fragilis 1936B, 24-hour incubation, read-out: MIC
[17] = Bacteroides melaninogenicus 1856/28, 24-hour incubation, read-out: MIC
[18] = Bacteroides melaninogenicus 2736, 24-hour incubation, read-out: MIC
[19] = Bacteroides vulgatis, 24-hour incubation, read-out: MIC
[20] = Bacteroides corrodens, 24-hour incubation, read-out: MIC
[21] = Fusobacterium symbiosum, 24-hour incubation, read-out: MIC
[22] = 24-hour incubation, read-out: MIC
[23] = Bacteroides fragilis, 111, 24 h
[24] = Bacteroides fragilis, 1877, 24 h
[25] = Bacteroides fragilis, 1936B, 24 h

| Structure (SMILES) | Units of Activity [1] | MIC (Actinomyces israelii) | MIC (Clostridium perfringens) | MIC [2] | MIC (Clostridium septicum) | MIC (Eubacterium aerofaciens; [11]) | MIC [3] | MIC (Peptococcus prevoti; [12]) | MIC [4] | MIC [5, 13] | MIC (Bacteroides fragilis 111; [14]) | MIC [6, 15] | MIC [7, 16] | MIC [8, 17] | MIC [9, 18] | MIC (Bacteroides vulgatis; [19]) | MIC [10, 22] | MIC (Mycoplasma gallisepticum) | MIC (Mycoplasma hyorhinis) | MIC (Mycoplasma synoviae) | also measured |
| --- | --- | --- | --- | --- | --- | --- | --- | --- | --- | --- | --- | --- | --- | --- | --- | --- | --- | --- | --- | --- | --- |
| CC[C@]1(C)C[C@@H](OC(=O)CS[C@@H]2O[C@H](CO)[C@@H](O)[C@H](O)[C@H]2O)[C@]2(C)[C@H](C)CC[C@]3(CCC(=O)[C@H]32)[C@@H](C)[C@@H]1O [Compound 5, 14-deoxy-14-[(β-D-glucopyranosyl)thioacetoxy]-19,20-dihydromutilin] | 29 to 31 µg/mg | ≤ 0.5 µg/mL | 8 µg/mL (≈ 14.3 µM) | 64 µg/mL (≈ 115 µM) | 32 µg/mL (≈ 57.3 µM) | 4 µg/mL (≈ 7.16 µM) | 4 µg/mL (≈ 7.16 µM) | 2 µg/mL (≈ 3.58 µM) | 8 µg/mL (≈ 14.3 µM) | 2 µg/mL (≈ 3.58 µM) | 64 µg/mL (≈ 115 µM) | 64 µg/mL (≈ 115 µM) | 128 µg/mL (≈ 229 µM) | 2 µg/mL (≈ 3.58 µM) | 4 µg/mL (≈ 7.16 µM) | 32 µg/mL (≈ 57.3 µM) | 8 µg/mL (≈ 14.3 µM) |  |  |  | MIC (Bacteroides corrodens; [20]): 64 µg/mL (≈ 115 µM); MIC (Fusobacterium symbiosum; [21]): 16 µg/mL (≈ 28.6 µM); Activity (color reaction) (Spiroplasma citri; 0.01 ppm): Y; Activity (color reaction) (Spiroplasma citri; 0.05 ppm): R; Activity (color reaction) (Spiroplasma citri; 0.1 ppm): R; Activity (color reaction) (Spiroplasma citri; 1.0 ppm): R |
| C=C[C@]1(C)C[C@@H](OC(=O)CO[C@H]2O[C@H](COC(C)=O)[C@@H](OC(C)=O)[C@H](OC(C)=O)C2=NO)[C@]2(C)[C@H](C)CC[C@]3(CCC(=O)[C@H]32)[C@@H](C)[C@@H]1O [Compound 7, 14-deoxy-14-[(2-deoxy-2-(hydroxyimino)-3,4,6-tri-O-acetyl-α-D-glucopyranosyl)oxyacetoxy]mutilin] | 11 to 12 µg/mg | 64 µg/mL (≈ 94.2 µM) | > 128 µg/mL | > 128 µg/mL | > 128 µg/mL |  | 64 µg/mL (≈ 94.2 µM) |  | 64 µg/mL (≈ 94.2 µM) |  |  |  |  |  | 32 µg/mL (≈ 47.1 µM) |  |  | 0.78 µg/mL (≈ 1.15 µM) | 0.78 µg/mL (≈ 1.15 µM) | > 6.25 µg/mL | MIC (Eubacterium aerofaciens; 24 h): > 128 µg/mL; MIC (Peptococcus prevoti; 24 h): 128 µg/mL (≈ 188 µM); MIC ([5]; Peptostreptococcus, 24 h): > 128 µg/mL; MIC (Bacteroides fragilis 111; [23]): > 128 µg/mL; MIC [6, 24]: > 128 µg/mL; MIC [7, 25]: > 128 µg/mL; MIC ([8]; 1856/28, 24 h): > 128 µg/mL; MIC (Bacteroides vulgatis; Bacteroides, 24 h): > 128 µg/mL; MIC (Bacteroides corrodens; 24 h): > 128 µg/mL; MIC (Fusobacterium symbiosum; Fusobacterium, 24 h): > 128 µg/mL; MIC ([10]; 24 h): > 128 µg/mL |
| C=C[C@]1(C)C[C@@H](OC(=O)CO[C@H]2O[C@H](COC(C)=O)[C@H](OC(C)=O)[C@H](OC(C)=O)C2=NO)[C@]2(C)[C@H](C)CC[C@]3(CCC(=O)[C@H]32)[C@@H](C)[C@@H]1O [Compound 9, 14-deoxy-14-[(2-deoxy-2-(hydroxyimino)-3,4,6-tri-O-acetyl-α-D-galactopyranosyl)oxyacetoxy]mutilin] | 53 to 54 µg/mg | 1 µg/mL (≈ 1.47 µM) | > 128 µg/mL | > 128 µg/mL | > 128 µg/mL |  | 16 µg/mL (≈ 23.5 µM) | 16 µg/mL (≈ 23.5 µM) | 2 µg/mL (≈ 2.94 µM) |  |  |  |  |  |  |  | 64 µg/mL (≈ 94.2 µM) | < 0.78 µg/mL | 1.56 µg/mL (≈ 2.29 µM) | < 0.78 µg/mL | MIC (Eubacterium aerofaciens; 24 h): > 128 µg/mL; MIC ([5]; Peptostreptococcus, 24 h): > 128 µg/mL; MIC (Bacteroides fragilis 111; [23]): > 128 µg/mL; MIC [6, 24]: > 128 µg/mL; MIC [7, 25]: > 128 µg/mL; MIC ([8]; 1856/28, 24 h): > 128 µg/mL; MIC ([9]; 2736, 24 h): > 128 µg/mL; MIC (Bacteroides vulgatis; Bacteroides, 24 h): > 128 µg/mL; MIC (Bacteroides corrodens; 24 h): > 128 µg/mL; MIC (Fusobacterium symbiosum; Fusobacterium, 24 h): > 128 µg/mL; MIC (Mycoplasma hyopneumoniae): 0.78 µg/mL (≈ 1.15 µM) |
| C=C[C@]1(C)C[C@@H](OC(=O)CS[C@@H]2O[C@H](CO)[C@@H](O)[C@H](O)[C@H]2O)[C@]2(C)[C@H](C)CC[C@]3(CCC(=O)[C@H]32)[C@@H](C)[C@@H]1O [Compound 10, 14-deoxy-14-[(β-D-glucopyranosyl)thioacetoxy]mutilin] | 36 µg/mg | 2 µg/mL (≈ 3.59 µM) | 64 µg/mL (≈ 115 µM) | 64 µg/mL (≈ 115 µM) | 64 µg/mL (≈ 115 µM) | 16 µg/mL (≈ 28.7 µM) | 16 µg/mL (≈ 28.7 µM) | 16 µg/mL (≈ 28.7 µM) | ≤ 0.5 µg/mL | 4 µg/mL (≈ 7.18 µM) | 128 µg/mL (≈ 230 µM) | 64 µg/mL (≈ 115 µM) | 64 µg/mL (≈ 115 µM) | > 128 µg/mL | 32 µg/mL (≈ 57.5 µM) | 64 µg/mL (≈ 115 µM) | 2 µg/mL (≈ 3.59 µM) | 1.56 µg/mL (≈ 2.8 µM) | 1.56 µg/mL (≈ 2.8 µM) | 3.12 µg/mL (≈ 5.6 µM) | MIC (Bacteroides corrodens; [20]): 64 µg/mL (≈ 115 µM); MIC (Fusobacterium symbiosum; [21]): 64 µg/mL (≈ 115 µM) |

From US4130709A, “Pleuromutilin glycoside derivatives” (Eli Lilly and Company, priority 1977, dated 1978)
